These results are taken from patent US4231925A, “Pentapeptides with analgesic activity on peripheral administration” (American Home Products Corporation, priority 1979, dated 1980).

Values joined by “and” are separate entries in the source; they are usually repeats but may differ in a detail not shown here. Identical values can stand only once. Like-named read-outs stand apart in the source and are kept apart here.

The conditions of data set [1]: intracerebroventricularly, intravenously, or subcutaneously; cited from earlier work.
A further data set deals with tail-flick. The note with it: rat, cited from earlier work.
The conditions of data set [2]: e.g. subcutaneously or intravenously; cited from earlier work.
The conditions of data set [3]: human blood plasma; cited from earlier work.
The conditions of data set [4]: rat blood plasma; cited from earlier work.
The next data set deals with opiate receptor. The settings on record: electrically stimulated guinea pig ileum; cited from earlier work.
Data set [5] deals with phenylbenzoquinone (PBQ)-induced writhing. Briefly: phenylbenzoquinone-induced writhing test, subcutaneous administration. Format: in vivo, mice. The method, then: The procedure is a modification of the method described by Siegmund and Cadmus, Proc. Soc. Exp. Biol. Med., 95, 729-731 (1957), which is used to evaluate both narcotic and non-narcotic analgesics. […] Laboratory mice of either sex, weighing 18-27 g. are used in groups of ten as test subjects. The test compound is administered first in an initial dose determined by the potency of the class of compounds and the route of administration. The test is run first in one group of mice at a relatively high dose to establish significant analgesic activity [see (1) in Table I]. When analgesic activity is observed in four or more of this group, a second test is run on at least three groups of mice to determine the most appropriate dose/time response to use in the subsequent dose response test [see (2) in Table I]. Finally, the ED50 dose is determined by administering different doses to several groups of mice and observing their reaction during the time interval established by the dose/time test [see (3)-(9) in Table I]. Note that the time interval is designated by the median time of the chosen response observation period (e.g. 15, 30, or 45 minutes). In testing each group of mice according to the above protocol, all mice in the group first are administered the selected dose of the test compound solution. Five minutes prior to the observation period (viz. at 5, 20, or 35 minutes after subcutaneous administration of the test compound of at 20, 50, or 80 minutes after oral administration of the test compound) all mice in the group receive 0.25 ml., intraperitoneally, of the writhing agonist (i.e. 0.02% solution of PBQ). At the chosen time interval, the group of mice is observed for a period of ten minutes for writhing.

The subject of data set [6] is rat brain opiate receptors. The data set is described as follows: in vitro opiate receptor assay, 3H-naloxone displacement in rat brain homogenate. Type of data set: binding. The settings on record: relative to morphine = 1.0.
Procedure: In this procedure, a fasted male Charles River CD rat, 190-290 g., is killed with a guillotine after carbon-dioxideanesthesia, and the brain is rapidly removed. After the cerebellum is excised, the brain is homogenized in 100 vol. (usually 150 ml.) iced 0.05 M Trizma buffer (pH 7.4 at 25°) 0.1 M in sodium chloride in a Brinkman Polytron for 1 min. at setting 3. The homogenate is centrifuged at 49,500 g for 15 min. (Sorvall SS-34 rotor at 19,500 rpm) in 50 ml. propylene tubes. The supernatant is decanted, and the pellets are resuspended in iced buffer to the original volume by use of a motor driven pestle tissue grinder. The homogenate is centrifuged again and resuspended in 10 ml. iced buffer.
Homogenates and samples ae equilibrated at room temperature for 5 minutes before adding 0.05 ml. 3 H-naloxone solution to give a total volume of 0.50 ml. for all tubes.
The assay tubes are hand-shaken every 15 min. for an incubation time of 60 min. at 0° C. The contents are filtered under reduced pressure through Whatman glass-fiber circles (GF/B, 2.4 cm. dia.). […] The vials are hand-shaken immediately, after 30 min., at the end of the day, stored overnight, hand-shaken, and radioactivity is determined by liquid-sintillation spectrometry.
The assay is calculated as follows: […]
For data set [7] the following is noted: oral administration; cited from earlier work.
The conditions of data set [8]: rat lateral brain ventricle; cited from earlier work.

As to (D-Met^2, Pro^5)-enkephalin amide, the analgesic activity entry in data set [1] was “elicits analgesic activity”.
As to “H--Tyr--Gly--Gly--Phe--Met--OH [Met-enkephalin]”, the “dose producing analgesia equivalent to morphine” value in the data set with tail-flick (intraventricular) is listed as 10-20 times that of morphine. In addition, in the data set with tail-flick (intraventricular), the duration of analgesia is 10 to 12 min. Also, the “activity when administered systemically” value in data set [2] was “virtually inactive”. The “breakdown in blood plasma” value in data set [3] and in data set [4] was “broken down” throughout.
For the molecule “H--Tyr--Gly--Gly--Phe--Leu--OH [Leu-enkephalin]”, in the data set on tail-flick (intraventricular), the “dose producing analgesia equivalent to morphine” value is given as 10-20 times that of morphine and the duration of analgesia is 10 to 12 min. Further, in [2], the “activity when administered systemically” value was “virtually inactive”.
As for “(D-Met^2, Leu^5) enkephalin, methyl ester”, the “opiate receptor agonist activity” value with opiate receptor is “strong opiate receptor agonist activity”.
Consider `CN[C@@H](Cc1ccc(O)cc1)C(=O)N[C@H](CCSC)C(=O)NCC(=O)N(C)[C@@H](Cc1ccccc1)C(=O)N[C@H](CO)C(N)=O` [Example 1, N-Methyl-Tyrosyl-D-Methionyl-Glycyl-N-Methyl-Phenylalanyl-D-Serinamide . Acetate], for which the “No. Analgesic / Total No. Tested” value in [5] ((1) 10.0 mg/kg subcutaneous, 15 minutes, 10 mg/kg) is 10/10 and 10 of 10; in data set [5] ((2) dose/time test, 0.1 mg/kg subcutaneous, 15 minutes) it was 4/10; in [5] ((2) dose/time test, 0.1 mg/kg subcutaneous, 30 minutes), 3/10; in [5] ((2) dose/time test, 0.1 mg/kg subcutaneous, 45 minutes), 1/10; in data set [5] ((3) 0.032 mg/kg subcutaneous, 15 minutes), 0/10; in [5] ((4) 0.056 mg/kg subcutaneous, 15 minutes), 3/10. In addition, the “No. Analgesic / Total No. Tested” value in [5] ((5) dose response test, 0.1 mg/kg subcutaneous, 15 minutes) is 2/10; in [5] ((6) 0.178 mg/kg subcutaneous, 15 minutes), 6/10; in [5] ((7) 0.316 mg/kg subcutaneous, 15 minutes), 5/10; in data set [5] ((8) 0.56 mg/kg subcutaneous, 15 minutes) it was 4/10; in data set [5] ((9) 1.00 mg/kg subcutaneous, 15 minutes, 1 mg/kg), 8/10 and 8 of 10. Moreover, the ED50 in [5] (subcutaneous, mice, complete inhibition of PBQ-induced writhing, 15 minutes) came out at 0.33 mg/kg. Besides, the entries for the “Relative Displacement Potency” value in data set [6] and in data set [6] (listed as Example I) were 14 and “in excess of ten times”, respectively.
Consider “(D-Ala^2, Me-Phe^4, Met(0)^5)-enkephalin”, for which the analgesic activity result in data set [7] is “elicited analgesic activity”.
Regarding `CN1CC[C@]23c4c5ccc(O)c4O[C@H]2[C@@H](O)C=C[C@H]3[C@H]1C5` [Morphine], the duration of analgesia entry in the data set with tail-flick (morphine comparison) is given as “an hour or more”.
Turning to (Ser^5)-enkephalin, the analgesic activity result in data set [8] is “eliciting analgesic activity”.
For (D-Ala^2, Met(O)^5)-enkephalin, the analgesic activity entry in data set [7] is listed as “elicited analgesic activity”.
